{
  "source": "paper PMC3344862",
  "about": "“Structural and Mutational Studies on Substrate Specificity and Catalysis of Salmonella typhimurium D-Cysteine Desulfhydrase” (PLoS ONE, 2012)",
  "key": {"StDCyD [1]": {"target": "T1, StDCyD (Salmonella enterica, UniProt Q8ZNT7)", "T1 construct": "gene dcyD; 36 kDa, dimer in solution; PLP on Lys51", "T1 sequence (Q8ZNT7 1-328)": "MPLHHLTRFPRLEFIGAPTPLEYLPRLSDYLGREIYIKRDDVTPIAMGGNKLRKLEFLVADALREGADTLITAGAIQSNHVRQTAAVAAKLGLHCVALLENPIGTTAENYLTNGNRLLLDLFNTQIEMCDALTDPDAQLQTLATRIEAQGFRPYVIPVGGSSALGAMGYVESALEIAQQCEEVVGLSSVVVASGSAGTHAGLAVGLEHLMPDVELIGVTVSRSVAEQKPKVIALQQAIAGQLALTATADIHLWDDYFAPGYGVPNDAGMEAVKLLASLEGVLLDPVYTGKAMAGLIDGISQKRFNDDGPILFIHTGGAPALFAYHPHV", "experiment": "X-ray crystallography; absorbance maximum […] nm", "format": "binding", "conditions": "covalent; Schiff base with Lys51"}, "StDCyD [2]": {"target": "T1, StDCyD", "experiment": "X-ray crystallography, crystal soak; UV-visible spectra", "format": "binding", "conditions": "covalent; external aldimine with PLP; 10 mM, about 2 min soak"}, "StDCyD [3]": {"target": "T1, StDCyD", "experiment": "X-ray crystallography, co-crystallization", "format": "binding"}, "StDCyD [4]": {"target": "T1, StDCyD", "experiment": "thermal melting", "format": "binding", "conditions": "10 mM pyruvate; Tm without and with ligand; data not shown"}, "StDCyD [5]": {"target": "T1, StDCyD", "experiment": "X-ray crystallography, crystals soaked with D-Cys or βCDA", "format": "binding", "conditions": "second site 4.0-6.0 Å from the active site (Arg222, Ser221); formed from D-Cys (4D8W) or βCDA (4D92)"}, "StDCyD [6]": {"target": "T1, StDCyD", "experiment": "X-ray crystallography, co-crystallization with DCS or LCS", "format": "binding", "conditions": "active site, not covalently linked to Lys51; formed from PLP by DCS (4D9B) or LCS (4D9C)"}, "[7]": {"target": "the molecule itself", "experiment": "SEC; analytical gel filtration of the purified protein"}},
  "data": [
    {"molecule": "Cc1ncc(COP(=O)(O)O)c(C=O)c1O", "note": "[PLP]", "values": [
      {"measurement": "X-ray crystallography; absorbance maximum 417 nm", "setting": "StDCyD [1]", "value": "PLP is bound by a Schiff base linkage to Lys51"}
    ]},
    {"molecule": "N[C@H]1CONC1=O", "note": "[LCS]", "values": [
      {"measurement": "X-ray crystallography, crystal soak; UV-visible spectra", "setting": "StDCyD [2]", "value": "Electron density observed at the active site was consistent with external aldimines of DCS or LCS"}
    ]},
    {"molecule": "NC1(C(=O)O)CC1", "note": "[ACC]", "values": [
      {"measurement": "X-ray crystallography, co-crystallization", "setting": "StDCyD [3]; covalent, external aldimine with PLP, not a substrate", "value": "StDCyD cocrystallized with ACC (PDB code: 4D96) revealed that the ligand binds as an external aldimine"}
    ]},
    {"molecule": "N[C@H](CO)C(=O)O", "note": "[D-Ser]", "values": [
      {"measurement": "X-ray crystallography, co-crystallization", "setting": "StDCyD [3]; active site, non-covalent, internal aldimine intact, poor substrate", "value": "Structures of StDCyD-D-Ser (PDB code: 4D97) and StDCyD-L-Ser (PDB code: 4D99) complexes"}
    ]},
    {"molecule": "N[C@@H](CO)C(=O)O", "note": "[L-Ser]", "values": [
      {"measurement": "X-ray crystallography, co-crystallization", "setting": "StDCyD [3]; active site, non-covalent, internal aldimine intact, not a substrate", "value": "Structures of StDCyD-D-Ser (PDB code: 4D97) and StDCyD-L-Ser (PDB code: 4D99) complexes"}
    ]},
    {"molecule": "CC(=O)C(=O)O", "note": "[pyruvate]", "values": [
      {"measurement": "Tm with ligand", "setting": "StDCyD [4]", "value": "80 to 85", "unit": "°C"},
      {"measurement": "X-ray crystallography, crystals soaked with D-Cys or βCDA", "setting": "StDCyD [5]", "value": "The modeled pyruvate is held by hydrogen bonding with Arg222 and Ser221"}
    ]},
    {"molecule": "N[C@@H]1CONC1=O", "note": "[DCS]", "values": [
      {"measurement": "X-ray crystallography, crystal soak; UV-visible spectra", "setting": "StDCyD [2]", "value": "Electron density observed at the active site was consistent with external aldimines of DCS or LCS"}
    ]},
    {"molecule": "Cc1ncc(COP(=O)(O)O)c(CN)c1O", "note": "[PMP]", "values": [
      {"measurement": "X-ray crystallography, co-crystallization with DCS or LCS", "setting": "StDCyD [6]", "value": "PMP is not covalently linked to ε-amino group of Lys51"}
    ]},
    {"molecule": "Salmonella typhimurium D-cysteine desulfhydrase (enzyme, UniProt Q8ZNT7 1-328, looked up, PLP bound by a Schiff base linkage to Lys51, residues 1-328; Cloned in pRSET C; no cleavage of the tag is described; Small domain residues 48-161, large domain residues 1-47 and 162-328; also called StDCyD; DCyD; source: E. coli BL21 (DE3) Rosetta, purified (Ni-NTA, size exclusion chromatography)) MPLHHLTRFPRLEFIGAPTPLEYLPRLSDYLGREIYIKRDDVTPIAMGGNKLRKLEFLVADALREGADTLITAGAIQSNHVRQTAAVAAKLGLHCVALLENPIGTTAENYLTNGNRLLLDLFNTQIEMCDALTDPDAQLQTLATRIEAQGFRPYVIPVGGSSALGAMGYVESALEIAQQCEEVVGLSSVVVASGSAGTHAGLAVGLEHLMPDVELIGVTVSRSVAEQKPKVIALQQAIAGQLALTATADIHLWDDYFAPGYGVPNDAGMEAVKLLASLEGVLLDPVYTGKAMAGLIDGISQKRFNDDGPILFIHTGGAPALFAYHPHV", "values": [
      {"measurement": "stoichiometry N", "setting": "[7]", "value": 2}
    ]}
  ]
}
